Measurements taken from patent US20220340665A1, “INHIBITOR AGAINST EXPRESSION OF IMMUNE CHECKPOINT MOLECULE” (RENASCIENCE INC., priority 2019, published 2022).
“Also recorded” adds a separate entry of the source.

Experiments:
[1] = system: mouse leukemia cell line (32Dp210); assay: PD-L1 expression level by flow cytometry in 32Dp210 cells (Experimental Examples 2 and 3); assay type: cell-based; settings: inhibitor 50 μM with rPAI-1 40 nM, 2 days, listed as PAI-1 inhibitor
Source text: In order to analyze the characteristics of cancer cells highly expressing PAI-1, a rouse leukemia cell line (obtained by transfecting 32D cells, i.e., a myelomonocytic progenitor cell line, with BCR-ABL; referred to below as “32Dp210”) was transfected with PAI-1 to produce cells overexpressing PAI-1 (32d PAI-1 OE). Next, in order to analyze the expression level of PD-L1, which is an ICM, in the cells, the cells were stained with an anti-PD-L1 antibody (clone name: 10F.G92) labeled with Allophycocyanin (APC) as a fluorescent dye, and subjected to flow cytometry. As a comparative control experiment, a 32Dp210 cell line without transfection of PAI-1 (wild-type cells: 32D WT) was analyzed in the same manner for the PD-L1 expression level.
Specifically, artificially produced recombinant PAI-1 (referred to below as “rPAI-1”; 40 nM) or a culture supernatant of the cells overexpressing PAI-1 (32d PAI-1 OE) prepared in Experimental Example 1 (PAI-1 OE sup; containing a high concentration of PAI-1) was added to 5×10^4 cells of a mouse leukemia cell line (32Dp210), and the cells were cultured on a 96-well plate at 37° C., 5% CO2, for 2 days. Next, the PD-L1 expression level was determined by flow cytometry in the same manner as in Experimental Example 1. As a comparative control experiment, the PD-L1 expression level in untreated mouse leukemia cells (control) was measured in the same manner. […]

human PAI-1 = human PAI-1 (Homo sapiens, UniProt P05121); assay: PAI-1 inhibitory activity, t-PA with Spectrozyme t-PA chromogenic substrate (Reference Experimental Example 2); assay type: biochemical; parameters: purchased Molecular Innovations, Inc. (USA); settings: system without compound after 120 minutes = 100%
Procedure: Subsequently, human-derived tissue plasminogen activator (t-PA) (manufactured by American Diagnostica, Inc. (USA); the same applies hereinafter) adjusted to 0.05 pmol/μL was added thereto, and the mixture was further incubated at 37° C. for 60 minutes. Then, 0.25 mM of Spectrozyme t-PA synthetic substrate (manufactured by American Diagnostica, Inc. (USA); the same applies hereinafter), which is a chromogenic substrate, was added. […]
Free p-nitroaniline removed from the chromogenic substrate (Spectrozyme t-PA) by t-PA action was measured using a spectrophotometer at an absorbance of 405 nm at 20-minute intervals, for 120 minutes.

[2] = system: mouse leukemia cell line (32Dp210); assay: PD-L1 expression in leukemic cells of mice transplanted with 32Dp210 (Experimental Example 5); assay type: in vivo, mice (C3H/HEJ); settings: peripheral blood, 10 mg/kg orally once daily, 7 days, vs vehicle, listed as PAI-1 inhibitor
Procedure: Specifically, 5×10^5 cells of a mouse leukemia cell line (32Dp210) were transplanted into mice (C3H/HEJ), and engraftment was confirmed one week later. Subsequently, the PAI-1 inhibitor was orally administered once daily at 10 mg/kg for a total of 7 days. On the next day of the final administration, the peripheral blood or the spleen was collected from the mice. The spleen was mechanically dispersed by grinding through nylon mesh. The peripheral blood and spleen cells were independently hemolyzed with an ammonium chloride solution and then stained with an anti-PD-L1 antibody (clone name: 10F.G92) labeled with Allophycocyanin (APC) to determine the PD-L1 expression level in the leukemic cells with a flow cytometer. As a comparative control experiment, instead of the PAI-1 inhibitor, only physiological saline (vehicle) was administered to the mice transplanted with the mouse leukemia cell line, and the PD-L1 expression level in the leukemic cells was determined with a flow cytometer in the same manner as described above.

[3] = system: M2 macrophages (CD11b+CD206+); assay: PD-L1 expression in M2 macrophages from cultured mouse spleen cells (Experimental Example 6); assay type: cell-based; settings: inhibitor 50 μM with rPAI-1 100 nM, 4 days; listed as PAI-1 inhibitor
Procedure: Specifically, 5×10^6 mouse spleen cells were cultured on a 24-well plate at 37° C., 5% CO2, overnight. After floating cells were removed, rPAI-1 (100 nM) was added, and culturing was performed at 37° C., 5% CO2, for 4 days. After culture, adherent cells were collected by trypsin treatment and stained with an anti-CD11b antibody and an anti-CD206 antibody, in addition to an anti-PD-L1 antibody. Then, gating was performed on CD11b and CD206 double-positive (CD11b^+CD206^+) M2 macrophages, and the PD-L1 expression level thereof was determined with a flow cytometer. As a comparative control experiment, the PD-L1 expression level in untreated mouse spleen cells (control) was determined in the same manner. Further, the PAI-1 inhibitor (50 μM) was added to the same mouse spleen cells, together with rPAI-1 (100 nM), followed by culture under the same conditions as described above. Then, adherent cells were collected and the PD-L1 expression level was determined with a flow cytometer in the same manner.

[4] = system: cancer-associated fibroblasts (CAF); assay: Cancer-associated fibroblasts in MC38 tumor sections (Experimental Example 15); assay type: in vivo, mice (C57BL6); settings: oral administration for one week, vs vehicle
Source text: 1) The untreated group and 3) the single-administration group of PAI-1 inhibitor (cancer-bearing mice) of Experimental Example 11, after tumor engraftment, were orally administered with physiological saline (vehicle) or the PAI-1 inhibitor for one week. Thereafter, the tumor was collected, fixed with paraformaldehyde, and then embedded in paraffin to prepare tissue sections. The tissue sections were stained with an anti-SMAcα antibody, and the percentage of cancer-associated fibroblasts (CAF) was observed under a microscope.

[5] = system: human ovarian clear cell adenocarcinoma cell line (ES2); assay: PD-L1 expression in tumor cells of ES2 tumor mass in nude mice (Experimental Example 9); assay type: in vivo; settings: ES2 subcutaneous in nude mice; 10 mg/kg orally once daily, 7 days; vs vehicle
Procedure: The efficacy of the PAI-1 inhibitor against human cancer cells (ovarian cancer cells) was studied in vivo. Specifically, 5×10^5 cells of a human ovarian clear cell adenocarcinoma cell line (ES2) were transplanted subcutaneously in nude mice. One week later, engraftment of more than 5 mm of tumor mass in the major axis was confirmed. Subsequently, the PAI-1 inhibitor was orally administered once daily at 10 mg/kg for a total of 7 days. On the next day of the final administration, the tumor mass was collected from the mice, chopped with scissors, suspended in a 0.025% collagenase solution (FUJIFILM Wako Pure Chemical Corporation), and treated at 37° C. for 2 hours to break cell-cell bonds. The cells obtained by enzymatic treatment were stained with an anti-PD-L1 antibody (clone name: 10F.G92) labelled with Allophycocyanin (APC), and the PD-L1 expression level in the tumor cells was determined with a flow cytometer. As a comparative control experiment, cells were collected also from the tumor mass in the same manner in terms of a mouse group to which only physiological saline (vehicle) was administered instead of the PAI-1 inhibitor, and the PD-L1 expression level in the tumor cells was determined with a flow cytometer.

human PAI-1, sequence (P05121 24-402): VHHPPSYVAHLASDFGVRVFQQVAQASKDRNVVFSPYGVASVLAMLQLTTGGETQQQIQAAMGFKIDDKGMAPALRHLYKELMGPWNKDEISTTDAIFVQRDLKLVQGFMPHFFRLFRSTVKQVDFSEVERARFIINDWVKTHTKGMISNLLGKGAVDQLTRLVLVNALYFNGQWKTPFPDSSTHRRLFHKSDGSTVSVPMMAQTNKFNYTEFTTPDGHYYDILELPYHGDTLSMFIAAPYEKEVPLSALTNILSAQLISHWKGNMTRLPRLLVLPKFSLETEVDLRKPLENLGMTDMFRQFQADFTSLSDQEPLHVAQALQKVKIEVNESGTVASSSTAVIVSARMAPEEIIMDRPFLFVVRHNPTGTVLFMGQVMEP

PAI-1 activity % (human PAI-1; compound 10 μm (head)): 2.1%
PAI-1 activity % (human PAI-1; compound 25 μm (head)): 2.4%
SMILES: O=C(Nc1ccc(Cl)cc1C(=O)[O-])c1cccc(-c2cccc3cccnc23)c1.[Na+] [Example 68, 5-chloro-2-(((3-(quinolin-8-yl)phenyl)carbonyl)amino)sodium benzoate]
PD-L1 expression induction by rPAI-1 [1]: completely inhibited the induction; also recorded: completely suppressed
PD-L1 expression level in leukemia cells [2]: reduced PD-L1 expression level; also recorded: lower PD-L1 expression level
enhancement of PD-L1 expression by rPAI-1 in M2 macrophages [3]: completely suppressed
percentage of intratumoral infiltration of cancer-associated fibroblasts [4]: reduced
PD-L1 expression level in the tumor cells [5]: reduced
